According to PubChem BioAssay AID1963974 (Molecular Pharmacology Branch, DTP, NCI, 2024):
Where “and” joins values, the source holds several entries; their conditions need not be identical. Identical values can stand only once.

System: 648629-189-R-J1-PDC spheroids with HUVEC/MSC, viability
Assay: Anticancer human tumor 648629-189-R-J1-PDC patient-derived bladder carcinoma cell line growth inhibition [PI3K]
Settings: for viability, T/C: stronger effect = lower value
How it was run: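 Spheroid viability read-out. Co-cultures contained the tumor line plus HUVEC and human MSCs. Each agent was paired with a PI3K inhibitor (inavolisib, alpelisib, duvelisib, copanlisib) across half-log dilutions starting at clinical Cmax, or at 10 microM when Cmax was unknown.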

[1] = curve of first compound, second compound 0.0316 µM
[2] = curve of first compound, second compound 0.1 µM
[3] = curve of first compound, second compound 0.316 µM
[4] = curve of first compound, second compound 1 µM
[5] = curve of first compound, second compound 3.16 µM
[6] = curve of first compound, second compound 10 µM
[7] = second compound 0.0316 µM, first compound 0.0316 µM
[8] = second compound 0.0316 µM, first compound 0.1 µM
[9] = second compound 0.0316 µM, first compound 0.316 µM
[10] = second compound 0.0316 µM, first compound 1 µM
[11] = second compound 0.0316 µM, first compound 3.16 µM
[12] = second compound 0.0316 µM, first compound 10 µM
[13] = second compound 0.1 µM, first compound 0.0316 µM
[14] = second compound 0.1 µM, first compound 0.1 µM
[15] = second compound 0.1 µM, first compound 0.316 µM
[16] = second compound 0.1 µM, first compound 1 µM
[17] = second compound 0.1 µM, first compound 3.16 µM
[18] = second compound 0.1 µM, first compound 10 µM
[19] = second compound 0.316 µM, first compound 0.0316 µM
[20] = second compound 0.316 µM, first compound 0.1 µM
[21] = second compound 0.316 µM, first compound 0.316 µM
[22] = second compound 0.316 µM, first compound 1 µM
[23] = second compound 0.316 µM, first compound 3.16 µM
[24] = second compound 0.316 µM, first compound 10 µM
[25] = second compound 1 µM, first compound 0.0316 µM
[26] = second compound 1 µM, first compound 0.1 µM
[27] = second compound 1 µM, first compound 0.316 µM
[28] = second compound 1 µM, first compound 1 µM
[29] = second compound 1 µM, first compound 3.16 µM
[30] = second compound 1 µM, first compound 10 µM
[31] = second compound 3.16 µM, first compound 0.0316 µM
[32] = second compound 3.16 µM, first compound 0.1 µM
[33] = second compound 3.16 µM, first compound 0.316 µM
[34] = second compound 3.16 µM, first compound 1 µM
[35] = second compound 3.16 µM, first compound 3.16 µM
[36] = second compound 3.16 µM, first compound 10 µM
[37] = second compound 10 µM, first compound 0.0316 µM
[38] = second compound 10 µM, first compound 0.1 µM
[39] = second compound 10 µM, first compound 0.316 µM
[40] = second compound 10 µM, first compound 1 µM
[41] = second compound 10 µM, first compound 3.16 µM
[42] = second compound 10 µM, first compound 10 µM
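Further: spheroids exposed to agents for seven days before reading.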
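Wherever viability, T/C is given: percent of vehicle control luminescence where 100% = DMSO treated spheroids.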

## CNC(=O)c1ccc(N2C(=S)N(c3ccc(C#N)c(C(F)(F)F)c3)C(=O)C2(C)C)cc1F + CC(Nc1ncnc2nc[nH]c12)c1cc2cccc(Cl)c2c(=O)n1-c1ccccc1
[1]
  IC50: > 10 µM
[2]
  IC50: > 10 µM
[3]
  IC50: > 10 µM
[4]
  IC50: > 10 µM
[5]
  IC50: > 10 µM
[6]
  IC50: > 10 µM
[7]
  viability, T/C: 113%
[8]
  viability, T/C: 107%
[9]
  viability, T/C: 101%
[10]
  viability, T/C: 102%
[11]
  viability, T/C: 102%
[12]
  viability, T/C: 87.4%
[13]
  viability, T/C: 113%
[14]
  viability, T/C: 98.9%
[15]
  viability, T/C: 96.6%
[16]
  viability, T/C: 97.8%
[17]
  viability, T/C: 92.8%
[18]
  viability, T/C: 80.2%
[19]
  viability, T/C: 105%
[20]
  viability, T/C: 111%
[21]
  viability, T/C: 93.5%
[22]
  viability, T/C: 104%
[23]
  viability, T/C: 118%
[24]
  viability, T/C: 78.9%
[25]
  viability, T/C: 99%
[26]
  viability, T/C: 101%
[27]
  viability, T/C: 100%
[28]
  viability, T/C: 97.1%
[29]
  viability, T/C: 105%
[30]
  viability, T/C: 88.5%
[31]
  viability, T/C: 92%
[32]
  viability, T/C: 109%
[33]
  viability, T/C: 93.9%
[34]
  viability, T/C: 95.3%
[35]
  viability, T/C: 95.5%
[36]
  viability, T/C: 90.8%
[37]
  viability, T/C: 82.7%
[38]
  viability, T/C: 87.1%
[39]
  viability, T/C: 100%
[40]
  viability, T/C: 91.1%
[41]
  viability, T/C: 87.7%
[42]
  viability, T/C: 69%

## CC(Cn1ccc(-c2ccc(C#N)c(Cl)c2)n1)NC(=O)c1cc(C(C)O)[nH]n1 (centres undefined) + Cc1nc(NC(=O)N2CCCC2C(N)=O)sc1-c1ccnc(C(C)(C)C(F)(F)F)c1
[1]
  IC50: > 10 µM
[2]
  IC50: > 10 µM
[3]
  IC50: > 10 µM
[4]
  IC50: > 10 µM
[5]
  IC50: > 10 µM
[6]
  IC50: < 0.0316 µM
[7]
  viability, T/C: 86.5%
[8]
  viability, T/C: 95.8%
[9]
  viability, T/C: 95.9%
[10]
  viability, T/C: 87.5%
[11]
  viability, T/C: 82.8%
[12]
  viability, T/C: 67.1%
[13]
  viability, T/C: 92.4%
[14]
  viability, T/C: 91.8%
[15]
  viability, T/C: 87.7%
[16]
  viability, T/C: 89.6%
[17]
  viability, T/C: 77.7%
[18]
  viability, T/C: 66.2%
[19]
  viability, T/C: 91.5%
[20]
  viability, T/C: 84.6%
[21]
  viability, T/C: 87.3%
[22]
  viability, T/C: 81.5%
[23]
  viability, T/C: 78.1%
[24]
  viability, T/C: 68.2%
[25]
  viability, T/C: 70.8%
[26]
  viability, T/C: 74.2%
[27]
  viability, T/C: 68.1%
[28]
  viability, T/C: 69.9%
[29]
  viability, T/C: 63.9%
[30]
  viability, T/C: 62.3%
[31]
  viability, T/C: 53.1%
[32]
  viability, T/C: 54.6%
[33]
  viability, T/C: 47.4%
[34]
  viability, T/C: 51.5%
[35]
  viability, T/C: 57.1%
[36]
  viability, T/C: 52.6%
[37]
  viability, T/C: 38.5%
[38]
  viability, T/C: 38.6%
[39]
  viability, T/C: 35.4%
[40]
  viability, T/C: 40.4%
[41]
  viability, T/C: 36.9%
[42]
  viability, T/C: 37.4%

## CC(C)NCC(C(=O)N1CCN(c2ncnc3c2C(C)CC3O)CC1)c1ccc(Cl)cc1 (centres undefined)
Compound 0.0316 µM
  viability, T/C: 95.2% and 106% (2×) and 98.2%
Compound 0.316 µM
  viability, T/C: 86% [middle of 4 runs]
Compound 1 µM
  viability, T/C: 48% [middle of 4 runs]
Compound 3.16 µM
  viability, T/C: 29.7% [middle of 4 runs]
Compound 10 µM
  viability, T/C: 16.6% and 15.3% (2×) and 14.4%
Curve of compound
  IC50: 1.06 µM [middle of 4 runs]

## CNC(=O)c1ccc(N2C(=S)N(c3ccc(C#N)c(C(F)(F)F)c3)C(=O)C2(C)C)cc1F
Compound 0.0316 µM
  viability, T/C: 107% (2×) and 95.9% and 101%
Compound 0.1 µM
  viability, T/C: 98.2% [middle of 4 runs]
Compound 0.316 µM
  viability, T/C: 107% [middle of 4 runs]
Compound 1 µM
  viability, T/C: 105% [middle of 4 runs]
Compound 3.16 µM
  viability, T/C: 92.6% and 104% (2×) and 108%
Compound 10 µM
  viability, T/C: 91% [middle of 4 runs]
Curve of compound
  IC50: > 10 µM

## C[C@@H](NC(=O)c1ncnc(N)c1Cl)c1ncc(C(=O)Nc2cc(C(F)(F)F)c(Cl)cn2)s1 + Cc1nc(NC(=O)N2CCCC2C(N)=O)sc1-c1ccnc(C(C)(C)C(F)(F)F)c1
[1]
  IC50: > 10 µM
[2]
  IC50: > 10 µM
[3]
  IC50: > 10 µM
[4]
  IC50: > 10 µM
[5]
  IC50: > 10 µM
[6]
  IC50: < 0.0316 µM
[7]
  viability, T/C: 101%
[8]
  viability, T/C: 93.8%
[9]
  viability, T/C: 98.8%
[10]
  viability, T/C: 116%
[11]
  viability, T/C: 107%
[12]
  viability, T/C: 106%
[13]
  viability, T/C: 107%
[14]
  viability, T/C: 92.4%
[15]
  viability, T/C: 95.4%
[16]
  viability, T/C: 108%
[17]
  viability, T/C: 120%
[18]
  viability, T/C: 118%
[19]
  viability, T/C: 81.2%
[20]
  viability, T/C: 101%
[21]
  viability, T/C: 83.4%
[22]
  viability, T/C: 93%
[23]
  viability, T/C: 90.9%
[24]
  viability, T/C: 94.5%
[25]
  viability, T/C: 74%
[26]
  viability, T/C: 73.2%
[27]
  viability, T/C: 78%
[28]
  viability, T/C: 77.9%
[29]
  viability, T/C: 88.7%
[30]
  viability, T/C: 82.6%
[31]
  viability, T/C: 53.3%
[32]
  viability, T/C: 56.6%
[33]
  viability, T/C: 59%
[34]
  viability, T/C: 55%
[35]
  viability, T/C: 66%
[36]
  viability, T/C: 54.7%
[37]
  viability, T/C: 40.2%
[38]
  viability, T/C: 35.4%
[39]
  viability, T/C: 39.2%
[40]
  viability, T/C: 36%
[41]
  viability, T/C: 36.6%
[42]
  viability, T/C: 42.7%
